This experiment concerns CD2F1 mice, L1210 leukemia ip, survival T/C. Put plainly: NCI In Vivo Anticancer Drug Screen. Data for tumor model L1210 Leukemia (intraperitoneal) in CD2F1 (CDF1) mice. To be noted: higher = longer survival. An outline of the steps:
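In this screen, transplantable tumors were grown in mice given either the compound or its vehicle. Results were expressed as the treated measurement relative to the control measurement.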

Setting [1] is: endpoint: mean survival time, dose: 100.0 mg/kg/injection, schedule: Q04DX002 (ip), vehicle: saline with Tween-80.
The mark [2] stands for this setting: endpoint: mean survival time, dose: 200.0 mg/kg/injection, schedule: Q04DX002 (ip), vehicle: saline with Tween-80.
[3] abbreviates: endpoint: mean survival time, dose: 400.0 mg/kg/injection, schedule: Q04DX002 (ip), vehicle: saline with Tween-80.
Setting [4] is: endpoint: mean survival time, dose: 100.0 mg/kg/injection, schedule: Q01DX001 (ip), vehicle: saline with Tween-80.
Setting [5] is: endpoint: mean survival time, dose: 200.0 mg/kg/injection, schedule: Q01DX001 (ip), vehicle: saline with Tween-80.
Setting [6] is: endpoint: mean survival time, dose: 400.0 mg/kg/injection, schedule: Q01DX001 (ip), vehicle: saline with Tween-80.
[7] abbreviates: endpoint: mean survival time, dose: 100.0 mg/kg/injection, schedule: Q01DX009 (ip), vehicle: saline with Tween-80.
[8] abbreviates: endpoint: mean survival time, dose: 100.0 mg/kg/injection, schedule: Q04DX003 (ip), vehicle: saline with Tween-80.
[9] abbreviates: endpoint: mean survival time, dose: 200.0 mg/kg/injection, schedule: Q01DX009 (ip), vehicle: saline with Tween-80.
The mark [10] stands for this setting: endpoint: mean survival time, dose: 200.0 mg/kg/injection, schedule: Q04DX003 (ip), vehicle: saline with Tween-80.
[11] abbreviates: endpoint: mean survival time, dose: 400.0 mg/kg/injection, schedule: Q01DX009 (ip), vehicle: saline with Tween-80.
Where [12] appears, read: endpoint: mean survival time, dose: 50.0 mg/kg/injection, schedule: Q01DX009 (ip), vehicle: saline with Tween-80.

Where “and” joins values, the source holds several entries; their conditions need not be identical. Equal values may be shown once. Inconclusive results and toxic doses are left out.

In PubChem BioAssay AID256 (DTP/NCI, 2004) one finds T/C data, which are given here for 23 molecules.

For `O=C1CN=C(c2ccccc2)O1`, the T/C is 100 % of control (endpoint: median survival time, dose: 50.0 mg/kg/injection, schedule: Q04DX002 (ip), vehicle: saline with Tween-80); 100 % of control (endpoint: median survival time, dose: 100.0 mg/kg/injection, schedule: Q04DX002 (ip), vehicle: saline with Tween-80); 111 % of control (endpoint: median survival time, dose: 200.0 mg/kg/injection, schedule: Q04DX002 (ip), vehicle: saline with Tween-80); 100 % of control (endpoint: median survival time, dose: 400.0 mg/kg/injection, schedule: Q04DX002 (ip), vehicle: saline with Tween-80).

For `Nc1ccccc1Cl`, the T/C was 95 % of control (endpoint: mean survival time, dose: 31.25 mg/kg/injection, schedule: Q01DX009 (ip), vehicle: saline with Tween-80); 97 % of control (endpoint: mean survival time, dose: 31.25 mg/kg/injection, schedule: Q04DX003 (ip), vehicle: saline with Tween-80); 91 % of control (endpoint: mean survival time, dose: 62.5 mg/kg/injection, schedule: Q01DX009 (ip), vehicle: saline with Tween-80); 101 % of control (endpoint: mean survival time, dose: 62.5 mg/kg/injection, schedule: Q04DX003 (ip), vehicle: saline with Tween-80); 93 % of control (endpoint: mean survival time, dose: 125.0 mg/kg/injection, schedule: Q01DX009 (ip), vehicle: saline with Tween-80); 101 % of control (endpoint: mean survival time, dose: 125.0 mg/kg/injection, schedule: Q04DX003 (ip), vehicle: saline with Tween-80).

As to `CC(C)C(S(=O)(=O)c1ccccc1)S(=O)(=O)c1ccccc1`, the T/C (endpoint: mean survival time, dose: 100.0 mg/kg/injection, schedule: Q01DX001 (ip), vehicle: saline) is 105 % of control; the T/C (endpoint: mean survival time, dose: 200.0 mg/kg/injection, schedule: Q01DX001 (ip), vehicle: saline) was 103 % of control; the T/C (endpoint: mean survival time, dose: 400.0 mg/kg/injection, schedule: Q01DX001 (ip), vehicle: saline) is 96 % of control.

For `CC(C)(C[NH-])C[NH-].[Cl][Pt+2]([Cl])([Cl])[Cl]`, the T/C (endpoint: median survival time, dose: 0.2 mg/kg/injection, schedule: Q04DX003 (ip), vehicle: water) is 116 % of control and 111 % of control; the T/C (endpoint: median survival time, dose: 0.4 mg/kg/injection, schedule: Q04DX003 (ip), vehicle: water) is 116 % of control and 124 % of control; the T/C (endpoint: median survival time, dose: 1.6 mg/kg/injection, schedule: Q04DX003 (ip), vehicle: water) is 151 % of control and 186 % of control and 228 % of control; the T/C (endpoint: median survival time, dose: 3.12 mg/kg/injection, schedule: Q04DX003 (ip), vehicle: distilled water + Tween-80) was 123 % of control.

With `O=C(NC/C=C/Br)Oc1cccc2ccccc12`, the T/C runs as follows: under setting [1], 101 % of control; under setting [2], 93 % of control; under setting [3], 101 % of control.

For the molecule `COc1ccccc1C(=O)CC(O)(C(F)(F)F)C(F)(F)F`, the T/C is, setting by setting: under setting [4], 95 % of control; under setting [5], 100 % of control; under setting [6], 109 % of control.

In the case of `NCCC(=O)O`, the T/C is, setting by setting: under setting [7], 98 % of control; under setting [8], 89 % of control; under setting [9], 97 % of control; under setting [10], 104 % of control; under setting [11], 97 % of control; (endpoint: mean survival time, dose: 400.0 mg/kg/injection, schedule: Q04DX003 (ip), vehicle: saline with Tween-80) 98 % of control.

Take `O=C(O)Cc1c(Cl)cccc1[N+](=O)[O-]`: the T/C (endpoint: mean survival time, dose: 100.0 mg/kg/injection, schedule: Q01DX001 (ip), vehicle: other) is 116 % of control; the T/C (endpoint: mean survival time, dose: 200.0 mg/kg/injection, schedule: Q01DX001 (ip), vehicle: other) was 101 % of control; the T/C (endpoint: mean survival time, dose: 400.0 mg/kg/injection, schedule: Q01DX001 (ip), vehicle: other) is 104 % of control.

Take `COc1ccc(NC(=O)Nc2ccccc2OC)c(Cl)c1`: the T/C reads like this: under setting [1], 94 % of control; under setting [2], 87 % of control; under setting [3], 97 % of control.

In the case of `O=C1CCC/C1=C/c1ccco1`, the T/C was 93 % of control (endpoint: mean survival time, dose: 25.0 mg/kg/injection, schedule: Q01DX009 (ip), vehicle: saline with Tween-80); 95 % of control under setting [12]; 86 % of control and 90 % of control under setting [7].

Consider `Nc1nc(=O)n(CCCOc2cccc(Cl)c2)cc1-c1ccc(Cl)c(Cl)c1`, for which the T/C is 96 % of control under setting [4], 89 % of control under setting [5] and 91 % of control under setting [6].

As for `CC(=O)Nc1cccc(NC(C)=O)n1`, the T/C reads like this: under setting [7], 95 % of control; under setting [9], 94 % of control; under setting [11], 91 % of control.

On to `CNC(=O)C1CCC(CC2CCCCC2)CC1` (centres undefined), for which the T/C is 93 % of control under setting [4], 93 % of control under setting [5] and 102 % of control under setting [6].

For the molecule `NC(=S)N/N=C/c1ccc([N+](=O)[O-])cc1`, where the note is “endpoint: mean survival time, dose: 75.0 mg/kg/injection, schedule: Q01DX001 (ip), vehicle: saline with Tween-80”, the T/C was 95 % of control.

For `Cc1c(Cl)cccc1NC(=O)Oc1ccc(Cl)cc1Cl`, the T/C under setting [8] is 95 % of control and the T/C under setting [10] was 97 % of control.

`CC([NH-])C([NH-])O.[Cl][Pt+2][Cl]` (centres undefined): the T/C (endpoint: mean survival time, dose: 6.25 mg/kg/injection, schedule: Q04DX003 (ip), vehicle: saline with Tween-80) was 115 % of control.

Turning to `COc1cc2ccnc(Nc3ccccc3)c2cc1OC`, the T/C was 95 % of control under setting [1], 95 % of control under setting [2] and 87 % of control under setting [3].

Take `Brc1ccc(N=C=C(c2ccccc2)c2ccccc2)cc1`: the T/C under setting [12] was 98 % of control; the T/C under setting [7] is 96 % of control; the T/C under setting [8] is 92 % of control; the T/C under setting [9] was 102 % of control; the T/C under setting [10] is 101 % of control.

`CN(C)CC1CCCCC(Br)C1=O` (centres undefined): the T/C is, setting by setting: (endpoint: mean survival time, dose: 75.0 mg/kg/injection, schedule: Q01DX001 (ip), vehicle: saline) 98 % of control; (endpoint: mean survival time, dose: 150.0 mg/kg/injection, schedule: Q01DX001 (ip), vehicle: saline) 107 % of control; (endpoint: mean survival time, dose: 300.0 mg/kg/injection, schedule: Q01DX001 (ip), vehicle: saline) 117 % of control.

For `CCCC(C(=O)OCC)C1=NC(C)(C)CC(C)O1` (centres undefined), the T/C by setting is: (endpoint: mean survival time, dose: 100.0 mg/kg/injection, schedule: Q04DX003 (ip), vehicle: acetone) 100 % of control; (endpoint: mean survival time, dose: 200.0 mg/kg/injection, schedule: Q04DX003 (ip), vehicle: acetone) 102 % of control; (endpoint: mean survival time, dose: 400.0 mg/kg/injection, schedule: Q04DX003 (ip), vehicle: acetone) 94 % of control.

With `CC1=C(C)C(=O)C(SC2CC(=O)OC2=O)=C(C)C1=O` (centres undefined), the T/C is, setting by setting: (endpoint: mean survival time, dose: 25.0 mg/kg/injection, schedule: Q01DX001 (ip), vehicle: saline with Tween-80) 108 % of control; (endpoint: mean survival time, dose: 50.0 mg/kg/injection, schedule: Q01DX001 (ip), vehicle: saline with Tween-80) 96 % of control; under setting [4], 104 % of control.

For `Nc1nc2c(c(=O)[nH]1)N(C=O)C(CNc1ccc(C(=O)N[C@@H](CCC(=O)O)C(=O)O)cc1)CN2` (some centres undefined), the T/C (endpoint: mean survival time, dose: 67.0 mg/kg/injection, schedule: Q01DX009 (sc), vehicle: other) was 105 % of control; the T/C (endpoint: mean survival time, dose: 100.0 mg/kg/injection, schedule: Q01DX009 (sc), vehicle: other) was 101 % of control; the T/C (endpoint: mean survival time, dose: 150.0 mg/kg/injection, schedule: Q01DX009 (sc), vehicle: other) was 101 % of control; the T/C (endpoint: mean survival time, dose: 225.0 mg/kg/injection, schedule: Q01DX009 (sc), vehicle: other) is 108 % of control; the T/C (endpoint: mean survival time, dose: 338.0 mg/kg/injection, schedule: Q01DX009 (sc), vehicle: other) was 103 % of control.

For `C1CCC2OCCOCCOC3CCCCC3OCCOCCOC2C1` (centres undefined), the T/C runs as follows: (endpoint: mean survival time, dose: 3.12 mg/kg/injection, schedule: Q01DX009 (ip), vehicle: Klucel (hydroxypropylcellulose) (HPC)) 108 % of control; (endpoint: mean survival time, dose: 6.25 mg/kg/injection, schedule: Q01DX009 (ip), vehicle: Klucel (hydroxypropylcellulose) (HPC)) 98 % of control and 103 % of control; (endpoint: mean survival time, dose: 12.5 mg/kg/injection, schedule: Q01DX009 (ip), vehicle: Klucel (hydroxypropylcellulose) (HPC)) 87 % of control and 100 % of control; (endpoint: mean survival time, dose: 25.0 mg/kg/injection, schedule: Q01DX009 (ip), vehicle: Klucel (hydroxypropylcellulose) (HPC)) 102 % of control and 103 % of control; (endpoint: mean survival time, dose: 50.0 mg/kg/injection, schedule: Q01DX009 (ip), vehicle: Klucel (hydroxypropylcellulose) (HPC)) 100 % of control and 104 % of control; (endpoint: mean survival time, dose: 100.0 mg/kg/injection, schedule: Q01DX009 (ip), vehicle: Klucel (hydroxypropylcellulose) (HPC)) 91 % of control.
